How the values were obtained:
Type in all cases: in vivo, mongrel adult dogs
[1] = test system: arterial mean blood pressure; test: Effects on arterial mean blood pressure
Experimental: (§1) All experiments were made on male and female thoractomized mongrel adult dogs weighing about 10 kg. under anesthesia with pentobarbital sodium. Compounds A, D, E and F were suspended in 0.2% CMC solution, Compound B dissolved in hydrochloric acid solution (pH 6), and Compound C and active placebo being dissolved in physiological saline solution. Animals were administered the drug intravenously on brachiuma with either test compound or active placebo.
(§2) Arterial blood pressure was measured by pressure transducer (Nippon Koden MPU-0.5) connected with the cannula inserted from exposed carotid artery into aorta. Aortic blood flow was determined by means of electromagnetic flow meter (Nippon Koden MF-5) mounted at the origin of the aorta. Coronary sinus out flow and coronary sinus oxygen tension were assessed by means of electromagnetic flow meter (Nippon Koden MF-5) and P02 macro electrode (Beokmann Moder 160-C), respectively using Morawitz cannulization technique. Heart rate was measured by cardiotachometer (Nippon Koden RT-2) synchronized with systolic blood pressure of aorta.

aortic blood flow = test: Effects on aortic blood flow
Experimental: as §1, §2

coronary sinus out flow = test: Effects on coronary sinus out flow
Experimental: as §1, §2

[2] = test system: coronary sinus oxygen tension; test: Effects on coronary sinus oxygen tension
Experimental: as §1, §2

heart rate = test: Effects on heart rate
Experimental: as §1, §2

CCOC(=O)CN1CCN(C(C#N)c2ccc(OC)c(OC)c2)CC1 (centres unmarked) [Compound B]
Changes (%) of basal values, arterial mean blood pressure ([1]; 0.2 mg/kg i.v., 1 min): +4.8% | Changes (%) of basal values, arterial mean blood pressure ([1]; 0.2 mg/kg i.v., 5 min): +0.4% | Changes (%) of basal values, arterial mean blood pressure ([1]; 0.2 mg/kg i.v., 10 min): +0.1% | Changes (%) of basal values, arterial mean blood pressure ([1]; 0.2 mg/kg i.v., 20 min): -0.1% | Changes (%) of basal values, arterial mean blood pressure ([1]; 0.2 mg/kg i.v., 30 min): 0% | Changes (%) of basal values, arterial mean blood pressure ([1]; 0.2 mg/kg i.v., 40 min): 0% | Changes (%) of basal values, arterial mean blood pressure ([1]; 0.2 mg/kg i.v., imm.): -5.0% | Changes (%) of basal values, arterial mean blood pressure ([1]; 0.6 mg/kg i.v., 1 min): +6.2% | Changes (%) of basal values, arterial mean blood pressure ([1]; 0.6 mg/kg i.v., 5 min): +0.1% | Changes (%) of basal values, arterial mean blood pressure ([1]; 0.6 mg/kg i.v., 10 min): -0.3% | Changes (%) of basal values, arterial mean blood pressure ([1]; 0.6 mg/kg i.v., 20 min): 0% | Changes (%) of basal values, arterial mean blood pressure ([1]; 0.6 mg/kg i.v., 30 min): 0% | Changes (%) of basal values, arterial mean blood pressure ([1]; 0.6 mg/kg i.v., 40 min): 0% | Changes (%) of basal values, arterial mean blood pressure ([1]; 0.6 mg/kg i.v., imm.): -14.4% | Changes (%) of basal values, arterial mean blood pressure ([1]; 3.0 mg/kg i.v., 1 min): +7.0% | Changes (%) of basal values, arterial mean blood pressure ([1]; 3.0 mg/kg i.v., 5 min): +2.5% | Changes (%) of basal values, arterial mean blood pressure ([1]; 3.0 mg/kg i.v., 10 min): +0.4% | Changes (%) of basal values, arterial mean blood pressure ([1]; 3.0 mg/kg i.v., 20 min): -1.0% | Changes (%) of basal values, arterial mean blood pressure ([1]; 3.0 mg/kg i.v., 30 min): -0.5% | Changes (%) of basal values, arterial mean blood pressure ([1]; 3.0 mg/kg i.v., 40 min): 0% | Changes (%) of basal values, arterial mean blood pressure ([1]; 3.0 mg/kg i.v., imm.): -16.2% | Effects on arterial mean blood pressure (in words) ([1]; i.v., anesthetized dogs): transitory hypotensive effect immediately after administration, and thereafter increased blood pressure which was then, from 10 minutes after medication, returned to the level before treatment | Changes (%) of basal values, aortic blood flow (aortic blood flow; 0.2 mg/kg i.v., 1 min): +1.2% | Changes (%) of basal values, aortic blood flow (aortic blood flow; 0.2 mg/kg i.v., 5 min): +0.3% | Changes (%) of basal values, aortic blood flow (aortic blood flow; 0.2 mg/kg i.v., 10 min): -0.1% | Changes (%) of basal values, aortic blood flow (aortic blood flow; 0.2 mg/kg i.v., 20 min): 0% | Changes (%) of basal values, aortic blood flow (aortic blood flow; 0.2 mg/kg i.v., 30 min): 0% | Changes (%) of basal values, aortic blood flow (aortic blood flow; 0.2 mg/kg i.v., 40 min): 0% | Changes (%) of basal values, aortic blood flow (aortic blood flow; 0.2 mg/kg i.v., imm.): +2.5% | Changes (%) of basal values, aortic blood flow (aortic blood flow; 0.6 mg/kg i.v., 1 min): +1.6% | Changes (%) of basal values, aortic blood flow (aortic blood flow; 0.6 mg/kg i.v., 5 min): +2.3% | Changes (%) of basal values, aortic blood flow (aortic blood flow; 0.6 mg/kg i.v., 10 min): 0% | Changes (%) of basal values, aortic blood flow (aortic blood flow; 0.6 mg/kg i.v., 20 min): -1.1% | Changes (%) of basal values, aortic blood flow (aortic blood flow; 0.6 mg/kg i.v., 30 min): -0.7% | Changes (%) of basal values, aortic blood flow (aortic blood flow; 0.6 mg/kg i.v., 40 min): 0% | Changes (%) of basal values, aortic blood flow (aortic blood flow; 0.6 mg/kg i.v., imm.): +4.8% | Changes (%) of basal values, aortic blood flow (aortic blood flow; 2.0 mg/kg i.v., 1 min): +4.3% | Changes (%) of basal values, aortic blood flow (aortic blood flow; 2.0 mg/kg i.v., 5 min): -1.2% | Changes (%) of basal values, aortic blood flow (aortic blood flow; 2.0 mg/kg i.v., 10 min): -2.1% | Changes (%) of basal values, aortic blood flow (aortic blood flow; 2.0 mg/kg i.v., 20 min): -1.8% | Changes (%) of basal values, aortic blood flow (aortic blood flow; 2.0 mg/kg i.v., 30 min): 0% | Changes (%) of basal values, aortic blood flow (aortic blood flow; 2.0 mg/kg i.v., 40 min): 0% | Changes (%) of basal values, aortic blood flow (aortic blood flow; 2.0 mg/kg i.v., imm.): +6.2% | Effects on aortic blood flow (in words) (aortic blood flow; i.v., anesthetized dogs): an increase in blood flow immediately after administration, followed by a decrease in blood flow | Changes(%) of basal values, coronary sinus out flow (coronary sinus out flow; 0.2 mg/kg i.v., 1 min): +4.9% | Changes(%) of basal values, coronary sinus out flow (coronary sinus out flow; 0.2 mg/kg i.v., 5 min): +0.7% | Changes(%) of basal values, coronary sinus out flow (coronary sinus out flow; 0.2 mg/kg i.v., 10 min): 0% | Changes(%) of basal values, coronary sinus out flow (coronary sinus out flow; 0.2 mg/kg i.v., 20 min): -0.3% | Changes(%) of basal values, coronary sinus out flow (coronary sinus out flow; 0.2 mg/kg i.v., 30 min): 0% | Changes(%) of basal values, coronary sinus out flow (coronary sinus out flow; 0.2 mg/kg i.v., 40 min): 0% | Changes(%) of basal values, coronary sinus out flow (coronary sinus out flow; 0.2 mg/kg i.v., imm.): +18.0% | Changes(%) of basal values, coronary sinus out flow (coronary sinus out flow; 0.6 mg/kg i.v., 1 min): +30.7% | Changes(%) of basal values, coronary sinus out flow (coronary sinus out flow; 0.6 mg/kg i.v., 5 min): +0.9% | Changes(%) of basal values, coronary sinus out flow (coronary sinus out flow; 0.6 mg/kg i.v., 10 min): -0.7% | Changes(%) of basal values, coronary sinus out flow (coronary sinus out flow; 0.6 mg/kg i.v., 20 min): -0.2% | Changes(%) of basal values, coronary sinus out flow (coronary sinus out flow; 0.6 mg/kg i.v., 30 min): 0% | Changes(%) of basal values, coronary sinus out flow (coronary sinus out flow; 0.6 mg/kg i.v., 40 min): 0% | Changes(%) of basal values, coronary sinus out flow (coronary sinus out flow; 0.6 mg/kg i.v., imm.): +39.5% | Changes(%) of basal values, coronary sinus out flow (coronary sinus out flow; 2.0 mg/kg i.v., 1 min): +47.4% | Changes(%) of basal values, coronary sinus out flow (coronary sinus out flow; 2.0 mg/kg i.v., 5 min): +8.2% | Changes(%) of basal values, coronary sinus out flow (coronary sinus out flow; 2.0 mg/kg i.v., 10 min): +5.9% | Changes(%) of basal values, coronary sinus out flow (coronary sinus out flow; 2.0 mg/kg i.v., 20 min): +3.2% | Changes(%) of basal values, coronary sinus out flow (coronary sinus out flow; 2.0 mg/kg i.v., 30 min): +1.5% | Changes(%) of basal values, coronary sinus out flow (coronary sinus out flow; 2.0 mg/kg i.v., 40 min): 0% | Changes(%) of basal values, coronary sinus out flow (coronary sinus out flow; 2.0 mg/kg i.v., imm.): +55.1% | Effects on coronary sinus out flow (in words) (coronary sinus out flow; i.v., anesthetized dogs): a marked increasing effect on coronary sinus out flow, which was proportioned to doses thereof and of long duration | Changes(%) of basal values, coronary sinus oxygen tension ([2]; 0.2 mg/kg i.v., 1 min): +11.3% | Changes(%) of basal values, coronary sinus oxygen tension ([2]; 0.2 mg/kg i.v., 5 min): +1.0% | Changes(%) of basal values, coronary sinus oxygen tension ([2]; 0.2 mg/kg i.v., 10 min): -2.0% | Changes(%) of basal values, coronary sinus oxygen tension ([2]; 0.2 mg/kg i.v., 20 min): -0.5% | Changes(%) of basal values, coronary sinus oxygen tension ([2]; 0.2 mg/kg i.v., 30 min): 0% | Changes(%) of basal values, coronary sinus oxygen tension ([2]; 0.2 mg/kg i.v., 40 min): 0% | Changes(%) of basal values, coronary sinus oxygen tension ([2]; 0.2 mg/kg i.v., imm.): +25.5% | Changes(%) of basal values, coronary sinus oxygen tension ([2]; 0.6 mg/kg i.v., 1 min): +46.4% | Changes(%) of basal values, coronary sinus oxygen tension ([2]; 0.6 mg/kg i.v., 5 min): +8.9% | Changes(%) of basal values, coronary sinus oxygen tension ([2]; 0.6 mg/kg i.v., 10 min): -3.2% | Changes(%) of basal values, coronary sinus oxygen tension ([2]; 0.6 mg/kg i.v., 20 min): -0.9% | Changes(%) of basal values, coronary sinus oxygen tension ([2]; 0.6 mg/kg i.v., 30 min): 0% | Changes(%) of basal values, coronary sinus oxygen tension ([2]; 0.6 mg/kg i.v., 40 min): 0% | Changes(%) of basal values, coronary sinus oxygen tension ([2]; 0.6 mg/kg i.v., imm.): +68.4% | Changes(%) of basal values, coronary sinus oxygen tension ([2]; 2.0 mg/kg i.v., 1 min): +70.9% | Changes(%) of basal values, coronary sinus oxygen tension ([2]; 2.0 mg/kg i.v., 5 min): +26.7% | Changes(%) of basal values, coronary sinus oxygen tension ([2]; 2.0 mg/kg i.v., 10 min): +8.0% | Changes(%) of basal values, coronary sinus oxygen tension ([2]; 2.0 mg/kg i.v., 20 min): +3.0% | Changes(%) of basal values, coronary sinus oxygen tension ([2]; 2.0 mg/kg i.v., 30 min): +0.8% | Changes(%) of basal values, coronary sinus oxygen tension ([2]; 2.0 mg/kg i.v., 40 min): 0% | Changes(%) of basal values, coronary sinus oxygen tension ([2]; 2.0 mg/kg i.v., imm.): +80.7% | Effects on coronary sinus oxygen tension (in words) ([2]; i.v., anesthetized dogs): a significant increase in coronary sinus oxygen tension, effect of which was of long duration | Changes(%) of basal values, heart rate (heart rate; 0.2 mg/kg i.v., 1 min): -0.9% | Changes(%) of basal values, heart rate (heart rate; 0.2 mg/kg i.v., 5 min): 0% | Changes(%) of basal values, heart rate (heart rate; 0.2 mg/kg i.v., 10 min): 0% | Changes(%) of basal values, heart rate (heart rate; 0.2 mg/kg i.v., 20 min): 0% | Changes(%) of basal values, heart rate (heart rate; 0.2 mg/kg i.v., 30 min): 0% | Changes(%) of basal values, heart rate (heart rate; 0.2 mg/kg i.v., 40 min): 0% | Changes(%) of basal values, heart rate (heart rate; 0.2 mg/kg i.v., imm.): -2.4% | Changes(%) of basal values, heart rate (heart rate; 0.6 mg/kg i.v., 1 min): +0.6% | Changes(%) of basal values, heart rate (heart rate; 0.6 mg/kg i.v., 5 min): -0.8% | Changes(%) of basal values, heart rate (heart rate; 0.6 mg/kg i.v., 10 min): -0.2% | Changes(%) of basal values, heart rate (heart rate; 0.6 mg/kg i.v., 20 min): 0% | Changes(%) of basal values, heart rate (heart rate; 0.6 mg/kg i.v., 30 min): -0.5% | Changes(%) of basal values, heart rate (heart rate; 0.6 mg/kg i.v., 40 min): 0% | Changes(%) of basal values, heart rate (heart rate; 0.6 mg/kg i.v., imm.): -13.1% | Changes(%) of basal values, heart rate (heart rate; 2.0 mg/kg i.v., 1 min): -2.4% | Changes(%) of basal values, heart rate (heart rate; 2.0 mg/kg i.v., 5 min): -1.5% | Changes(%) of basal values, heart rate (heart rate; 2.0 mg/kg i.v., 10 min): -0.7% | Changes(%) of basal values, heart rate (heart rate; 2.0 mg/kg i.v., 20 min): 0% | Changes(%) of basal values, heart rate (heart rate; 2.0 mg/kg i.v., 30 min): 0% | Changes(%) of basal values, heart rate (heart rate; 2.0 mg/kg i.v., 40 min): 0% | Changes(%) of basal values, heart rate (heart rate; 2.0 mg/kg i.v., imm.): -25.3% | Effects on heart rate (in words) (heart rate; i.v., anesthetized dogs): a slight negative chronotropic effect
